Experimental findings from paper PMC6361752, “Construction of a Quantitative Structure Activity Relationship (QSAR) Model to Predict the Absorption of Cephalosporins in Zebrafish for Toxicity Study” (Frontiers in Pharmacology, 2019) are described below.

Where only a bound is given, the exact number is not on record here.

This data set has as its system Zebrafish wild-type (WT) embryos. Kind of data set: Absorption (internal concentration) of cephalosporins in zebrafish embryos by LC-MS/MS. To be noted: 6 hpf-3 dpf; for k-value (slope of the dose-internal concentration linear regression): zebrafish embryos, 0.28, 1.0 and 2.0 mM, higher k = more readily absorbed. Here is the method:
Zebrafish (Danio rerio) were fed at the Institute of Medicinal Biotechnology, Beijing Union Medical College, Beijing, China. […] Zebrafish wild-type (WT) embryos (n = 30) at 6 h post-fertilization (6 hpf) were used. After immersing the embryos in 2 mL of each drug solution (Drugs were dissolved in breeding water), they were incubated in a 20 mm dish for 3 days. […] The zebrafish bodies were collected at 3 days post-fertilization (dpf). The blank controls were zebrafish WT embryos (n = 30) that were incubated in breeding water.
Using a cell strainer (100 μm, BD-Falcon, United States), zebrafish bodies (30 in each dish) were washed five times with deionized water. Zebrafish bodies were triturated in 100 μL of deionized water, and then they were homogenized for 1 min. Zebrafish homogenate (50 μL) and internal standard (IS) working solution (10 μL) were individually transferred into a 1.5-mL microcentrifuge tube. Then, 200 μL of 1% formic acid-methanol solution was added into the tube. The samples were vortexed for 20 s. To precipitate proteins, the samples were centrifuged at 10,800 g for 10 min. The resultant supernatant (10 μL) was injected into LC-MS/MS for analysis.
The LC-MS/MS technique was performed by combining a 20A LC (Shimadzu, Kyoto, Japan) and a 6500 Q-Trap mass spectrometer (AB Sciex, Foster City, CA, United States), which was equipped with an electrospray ionization (ESI) source. Moreover, LC separations were performed on a reversed-phase ACE C18 column (5 cm × 2.1 mm ID, 3 μm particle size, Advanced Chromatography Technologies, Aberdeen, United Kingdom), which was attached to a corresponding guard column (1 cm × 2.1 mm ID, 3 μm particle size; Advanced Chromatography Technologies, United Kingdom). The mobile phase comprised of 5 mM ammonium formate (pH = 3.5) (solvent A) and acetonitrile (solvent B). The composition of the gradient was as follows: 2% solvent B for the first 0.1 min; 3.5 min, 90% solvent B; 6.0 min, 90% solvent B; 6.1 min, 2% solvent B; and 10 min, 2% solvent B. Mass spectrometric analysis was performed in a positive mode. Ion-spray voltage was set at 5000 V, and source temperature was kept fixed at 500°C. Curtain gas, gas 1, and gas 2 were 25, 40, and 40 psi, respectively. Multiple reaction monitoring (MRM) scan was used for the quantification of 19 analytes. In this scan, we determined the most intense product ion (PI) of each analyte. The entrance potential (EP) of all analytes was 10 eV. For each ion transition, dwell time and pause time were set to 30 and 5 ms, respectively. The Analyst 1.6.2 software (AB Sciex, Foster City, CA, United States) was used to perform data acquisition and analysis.
Dose-internal concentration curves were constructed by linear regression analysis. The slope of each linear regression was defined as k-value for each drug. […] The entire data set was split into the training set and test set by a random index, which was operated by DS4.0 software. The training set percentage was set at 80.
Using the aforementioned method, we analyzed the internal concentrations of cephalosporins in zebrafish. […] The calibration samples and administration samples were processed in a timely manner. The internal concentration of each cephalosporin in the zebrafish was calculated by using the corresponding calibration curve (Table 2). […] Dose-internal concentration curves were constructed by linear regression analysis (Figure 1). For each drug, the slope of each linear regression was defined as k-value. This parameter was used to evaluate the absorption capacity of each drug.

The mark [1] stands for this setting: zebrafish embryos exposed to 0.28 mM drug solution.
The mark [2] stands for this setting: zebrafish embryos exposed to 1 mM drug solution.
The mark [3] stands for this setting: zebrafish embryos exposed to 2 mM drug solution.

With `CO/N=C(\C(=O)N[C@@H]1C(=O)N2C(C(=O)O)=C(COC(N)=O)CS[C@H]12)c1ccco1` [Cefuroxime], the “k-value (slope of the dose-internal concentration linear regression)” value was determined as 2.3643. The compound also gave an Internal concentration under setting [1] of 0.68 mM × 10^-5. The compound further came in with an Internal concentration under setting [2] of 1.55 mM × 10^-5. The Internal concentration under setting [3] is 4.66 mM × 10^-5. For the same compound, for the setting “listed as cefuroxime”, the “k-value (slope of the dose-internal concentration linear regression)” value is under 5.
With `Cc1nnc(SCC2=C(C(=O)O)N3C(=O)[C@@H](NC(=O)Cn4cnnn4)[C@H]3SC2)s1` [Cefazolin], the “k-value (slope of the dose-internal concentration linear regression)” value is listed as 3.0851. Also, the Internal concentration under setting [1] is on record as 8.56 mM × 10^-5. Also, the Internal concentration under setting [2] was determined as 13.95 mM × 10^-5. The same compound showed an Internal concentration under setting [3] of 14.19 mM × 10^-5. In addition, the “k-value (slope of the dose-internal concentration linear regression)” value (listed as cefazolin) was under 5.
Consider `O=C(Cn1cnnn1)N[C@@H]1C(=O)N2C(C(=O)O)=C(CSc3nncs3)CS[C@H]12` [Ceftezole], for which the “k-value (slope of the dose-internal concentration linear regression)” value is listed as 5.2798. The compound further returned an Internal concentration under setting [1] of 3.95 mM × 10^-5. The same compound had an Internal concentration under setting [2] of 7.08 mM × 10^-5. This compound came in with an Internal concentration under setting [3] of 12.96 mM × 10^-5. Under “listed as ceftezole”, the “k-value (slope of the dose-internal concentration linear regression)” value is listed as over 5.
Regarding `CC(=O)OCC1=C(C(=O)O)N2C(=O)[C@@H](NC(=O)CSC(=NC(C)C)NC(C)C)[C@H]2SC1` [Cefathiamidine], the “k-value (slope of the dose-internal concentration linear regression)” value came out at 0.6439. Under setting [1], this compound returned an Internal concentration of 0.49 mM × 10^-5. This compound displayed an Internal concentration under setting [2] of 1.29 mM × 10^-5. In addition, the Internal concentration under setting [3] is given as 1.63 mM × 10^-5. In addition, under “listed as cefathiamidine”, the “k-value (slope of the dose-internal concentration linear regression)” value is under 5.
As for `CO/N=C(\C(=O)N[C@@H]1C(=O)N2C(C(=O)O)=C(COC(C)=O)CS[C@H]12)c1csc(N)n1` [Cefotaxime], the Internal concentration under setting [1] turned out to be 0.27 mM × 10^-5, the Internal concentration under setting [2] was determined as 0.75 mM × 10^-5 and the Internal concentration under setting [3] came out at 0.82 mM × 10^-5.
In the case of `N[C@@H](C(=O)N[C@@H]1C(=O)N2C(C(=O)O)=C(Cl)CS[C@H]12)c1ccccc1` [Cefaclor], the “k-value (slope of the dose-internal concentration linear regression)” value is given as 5.0027. This compound gave an Internal concentration under setting [1] of 1.01 mM × 10^-5. Besides, the Internal concentration under setting [2] was found to be 3.43 mM × 10^-5. The compound also yielded an Internal concentration under setting [3] of 9.49 mM × 10^-5. Further, the “k-value (slope of the dose-internal concentration linear regression)” value (listed as cefaclor) is over 5.
Consider `CO/N=C(\C(=O)N[C@@H]1C(=O)N2C(C(=O)[O-])=C(C[n+]3cccc4c3CCC4)CS[C@H]12)c1csc(N)n1` [Cefpirome], for which the “k-value (slope of the dose-internal concentration linear regression)” value is given as under 5. In addition, under setting [1], the Internal concentration is listed as 0.21 mM × 10^-5. The Internal concentration under setting [2] is on record as 0.86 mM × 10^-5. The Internal concentration under setting [3] was found to be 1.67 mM × 10^-5.
With `CO[C@@]1(NC(=O)Cc2cccs2)C(=O)N2C(C(=O)O)=C(COC(N)=O)CS[C@@H]21` [Cefoxitin], the “k-value (slope of the dose-internal concentration linear regression)” value came to 9.1638. The compound further came in with an Internal concentration under setting [1] of 2.22 mM × 10^-5. Under setting [2], this compound registered an Internal concentration of 12.73 mM × 10^-5. Besides, the Internal concentration under setting [3] was found to be 18.39 mM × 10^-5. In addition, where the note is “listed as cefoxitin”, the “k-value (slope of the dose-internal concentration linear regression)” value was over 5.
As for `CO/N=C(\C(=O)N[C@@H]1C(=O)N2C(C(=O)O)=C(CSc3nc(C)c(CC(=O)O)s3)CS[C@H]12)c1csc(N)n1` [Cefodizime], the “k-value (slope of the dose-internal concentration linear regression)” value is 1.7709. For the same compound, the Internal concentration under setting [1] was determined as 0.51 mM × 10^-5. The Internal concentration under setting [2] is 0.94 mM × 10^-5. The Internal concentration under setting [3] is listed as 3.47 mM × 10^-5. Moreover, the “k-value (slope of the dose-internal concentration linear regression)” value (listed as cefodizime) is recorded as under 5.
For the compound `CO[C@@]1(NC(=O)CSC(F)F)C(=O)N2C(C(=O)O)=C(CSc3nnnn3CCO)CO[C@@H]21` [Flomoxef], the “k-value (slope of the dose-internal concentration linear regression)” value came to 5.9111. In addition, under setting [1], the Internal concentration worked out at 1.07 mM × 10^-5. The compound further gave an Internal concentration under setting [2] of 8.30 mM × 10^-5. Further, the Internal concentration under setting [3] stood at 11.54 mM × 10^-5. Besides, the “k-value (slope of the dose-internal concentration linear regression)” value (listed as flomoxef) was over 5.
Regarding `CO/N=C(\C(=O)N[C@@H]1C(=O)N2C(C(=O)O)=C(CSc3nnnn3C)CS[C@H]12)c1csc(N)n1` [Cefmenoxime], the “k-value (slope of the dose-internal concentration linear regression)” value was 0.6493. This compound showed an Internal concentration under setting [1] of 0.00 mM × 10^-5. Moreover, the Internal concentration under setting [2] was found to be 0.71 mM × 10^-5. Besides, under setting [3], the Internal concentration is listed as 1.14 mM × 10^-5. Also, the “k-value (slope of the dose-internal concentration linear regression)” value (listed as cefmenoxime) is under 5.
As to `CC1=C(C(=O)O)N2C(=O)[C@@H](NC(=O)[C@H](N)C3=CCC=CC3)[C@H]2SC1` [Cefradine], the “k-value (slope of the dose-internal concentration linear regression)” value turned out to be 9.8110. Besides, the Internal concentration under setting [1] is listed as 3.15 mM × 10^-5. Under setting [2], this compound displayed an Internal concentration of 8.93 mM × 10^-5. In addition, the Internal concentration under setting [3] is listed as 19.89 mM × 10^-5. Further, the “k-value (slope of the dose-internal concentration linear regression)” value (listed as cefradine) is listed as over 5.
On to `CN(C)CCn1nnnc1SCC1=C(C(=O)O)N2C(=O)[C@@H](NC(=O)Cc3csc(N)n3)[C@H]2SC1` [Cefotiam], for which the “k-value (slope of the dose-internal concentration linear regression)” value turned out to be 2.0488. For the same compound, under setting [1], the Internal concentration is 0.25 mM × 10^-5. Besides, the Internal concentration under setting [2] is recorded as 1.31 mM × 10^-5. For the same compound, under setting [3], the Internal concentration amounted to 3.73 mM × 10^-5. In addition, for the setting “listed as cefotiam”, the “k-value (slope of the dose-internal concentration linear regression)” value is on record as under 5.
Consider `CC1=C(C(=O)O)N2C(=O)[C@@H](NC(=O)[C@H](N)c3ccc(O)cc3)[C@H]2SC1` [Cefadroxil], for which the “k-value (slope of the dose-internal concentration linear regression)” value came to 6.4617. Under setting [1], this compound registered an Internal concentration of 1.32 mM × 10^-5. The Internal concentration under setting [2] worked out at 7.07 mM × 10^-5. For the same compound, under setting [3], the Internal concentration is 12.55 mM × 10^-5. In addition, the “k-value (slope of the dose-internal concentration linear regression)” value (listed as cefadroxil) is given as over 5.
Regarding `CCN1CCN(C(=O)N[C@@H](C(=O)N[C@@H]2C(=O)N3C(C(=O)O)=C(CSc4nnnn4C)CS[C@H]23)c2ccc(O)cc2)C(=O)C1=O` [Cefoperazone], the “k-value (slope of the dose-internal concentration linear regression)” value is on record as 6.5063. Under setting [1], the Internal concentration was determined as 1.30 mM × 10^-5. The compound also returned an Internal concentration under setting [2] of 5.75 mM × 10^-5. Also, the Internal concentration under setting [3] was 12.47 mM × 10^-5. For the same compound, the “k-value (slope of the dose-internal concentration linear regression)” value (listed as cefoperazone) is given as over 5.
`CC1=C(C(=O)O)N2C(=O)[C@@H](NC(=O)[C@H](N)c3ccccc3)[C@H]2SC1` [Cefalexin]: the “k-value (slope of the dose-internal concentration linear regression)” value amounted to 9.3280. This compound showed an Internal concentration under setting [1] of 1.01 mM × 10^-5. In addition, the Internal concentration under setting [2] is 5.48 mM × 10^-5. Moreover, under setting [3], the Internal concentration was found to be 16.83 mM × 10^-5.
